Data: patent US20100061984A1, “COMPOSITIONS AND METHODS FOR MODULATION OF SUPPRESSOR T CELL ACTIVATION” (The Trustees of the University of Pennsylvania, priority 2006, published 2010)
Marks after values point to notes of the source that are not given here.

How the values were obtained:
autoimmune models = assay: several autoimmune models (NOD, EAE, CIA); format: in vivo; settings: MOG-induced EAE and CIA mouse models
From the text: Studies of the rational inactivation of HDACs have been initiated with the intent of modifying FOXP3 acetylation. […] This treatment leads to increased FoxP3^+ suppressor cell levels and function. The models studied include the Nonobese Diabetic Mice (NOD) model, the myelin oligodendrocyte glycoprotein-induced experimental autoimmune encephalomyelitis (EAE) model, and the collagen-induced arthritis (CIA) mouse model.

[1] = tested on: Experimental Autoimmune Encephalomyelitis; assay: experimental autoimmune encephalomyelitis model (MOG38-50 peptide); format: in vivo; settings: Table 1, 7-10 mice per group, PBS 100%
From the text: (§1) Experiments were done to test the effect of valproic acid (VPA) on autoimmune disease models. Three models were used: a collagen induced arthritis (CIA) model; a non-obese diabetic mouse model; and an experimental autoimmune encephalomyelitis model. Collagen used in the CIA model was collagen from chicken sternal cartilage powder, Type II, from Sigma Cat#C9301. The peptide that was used in EAE experiments was Mouse MOG38-50 peptide ([…]-SEQ ID NO:1), which was synthesized using>F-moc solid phase methods and purified through HPLC by Invitrogen Life Technologies. For each model tested 7-10 mice were used per group. Results obtained with VPA were compared to those using the negative control phosphate buffered saline.

Non-obese diabetic mouse = assay: non-obese diabetic mouse model; format: in vivo; settings: Table 1, 7-10 mice per group, PBS 50%
From the text: as §1

FOXP3+CD25+ cells = assay: flow cytometry of splenocytes from collagen induced arthritic mice for CD4, CD25 and FOXP3; format: in vivo
Experimental: Splenocytes from collagen induced arthritic mice treated with VPA (no disease evident) or PBS (disease evident) were stained for cell-surface CD25 and intracellular FOXP3. The CD25+FOXP3+cell subpopulation was gated, and FOXP3 level was analyzed.
(§2) HDAC inhibitor treatment in collagen induced arthritis: HDAC inhibitor VPA was tested in the collagen induced arthritis (CIA) disease model of rheumatoid arthritis. CD4+ T cells as well as B cells are responsible for disease manifestation within the joints and CD25+ Treg play a protective role in disease development. After disease induction with type II collagen, mice were administered VPA (400 mg/kg) or PBS ip daily for 5 weeks. They were scored for severity of disease twice per week. […] Splenocytes from collagen induced arthritic mice that were treated with VPA (no disease evident) or PBS (disease evident) were analyzed for expression of CD4, CD25 and FOXP3 by flow cytometry. […] Additionally, the intracellular levels of FOXP3 protein were elevated in the VPA treated mice compared to PBS mice (FIG. 10). […] In proposed studies VPA treated CD25+ cells will be compared to PBS treated CD25+ cells for increased functional regulatory activity in vitro. HDAC inhibitor VPA is able to modify disease progression in the CIA model of rheumatoid arthritis.

[2] = tested on: collagen induced arthritis (CIA); assay: collagen induced arthritis (CIA) disease model of rheumatoid arthritis; format: in vivo, mice
Experimental: as §2, §1

Row | SMILES | FoxP3+ suppressor cell levels and function (autoimmune models) | clinical effects in autoimmune models (autoimmune models) | Incidence of Disease [1] [%*] | Incidence of Disease (Non-obese diabetic mouse) [%] | intracellular levels of FOXP3 protein compared to PBS mice (FOXP3+CD25+ cells; CD25+FOXP3+ gated splenocytes from CIA mice (FIG. 10)) | increase in the percentage of FOXP3+CD25+ cells, VPA treated versus PBS treated splenocytes (FOXP3+CD25+ cells; splenocytes from CIA mice, flow cytometry) [fold] | Incidence of Disease ([2]; Collagen Induced Arthritis, Table 1, 7-10 mice per group, PBS 100%) [%] | mice showing any disease at the end of the 5 week study ([2]; VPA 400 mg/kg ip daily for 5 weeks after induction with type II collagen, PBS group 100%) [%] | disease severity compared to PBS treated ([2]; VPA 400 mg/kg ip daily for 5 weeks, scored twice per week)
1 | CC(/C=C/C(=O)NO)=C\[C@@H](C)C(=O)c1ccc(N(C)C)cc1 [TSA, Trichostatin A] | increased | significant clinical effects | – | – | – | – | – | – | –
2 | CCCC(CCC)C(=O)O [VPA, valproic acid] | increased | significant clinical effects | 57 | 20 | elevated | 1.63 | 29 | 25 | greatly reduced
